# Article PMC7920280, “The Multi-Targeting Ligand ST-2223 with Histamine H3 Receptor and Dopamine D2/D3 Receptor Antagonist Properties Mitigates Autism-Like Repetitive Behaviors and Brain Oxidative Stress in Mice” (International Journal of Molecular Sciences, 2021)
# How the values were obtained:
# [1] = test system: mice with valproic acid (VPA)-induced ASD; settings: cited from earlier work
# BTBR and B6 mice [2] = assay: Self-grooming paradigm (SGP); type: in vivo; settings: BTBR mice; RAM 10 mg/kg i.p. co-administered with ST-2223 5 mg/kg
# Description: (§1) The drugs tested included ST-2223 [N-(4-(4-(2-methoxyphenyl)piperazin-1-yl)butyl)-6-(3-(piperidin-1-yl)propoxy)-2-naphthamide] that was designed and synthesized in the Institute of Pharmaceutical and Medicinal Chemistry, Heinrich Heine University Düsseldorf, Germany, and in accordance with previously described methodologies (Supplementary Materials). Aripiprazole (ARP) (1 mg/kg, i.p.) and memantine (MEM, 5 mg/kg, i.p.), as reference drugs, were purchased from Sigma-Aldrich (St. Louis, MO, USA). The CNS-penetrant H3R agonist (R)-α-methylhistamine (RAM, 10 mg/kg, i.p.) was purchased from Sigma-Aldrich, St. Louis, MO, USA. T. Protease and the phosphatase inhibitor cocktail were procured from Thermo Scientific, USA. The assay kit for reduced glutathione (GSH) was obtained from Sigma-Aldrich (St. Louis, MO, USA). The lipid peroxidation assay kit for estimation of malondialdehyde (MDA) was purchased from North West Life Science (Vancouver, WA, USA). The assay kits for superoxide dismutase (SOD) and catalase (CAT) were purchased from Cayman Chemical (Ann Arbor, MI, USA). The drugs were prepared daily using 1% dimethyl sulfoxide (DMSO) in 0.9% saline, for intraperitoneal (i.p.) administration at a volume of 10 mL/kg of body weight. Vehicle treatment consisted of 1% DMSO in 0.9% normal saline. All drugs were i.p. administered 30 min before the behavioral test. The doses of these drugs were chosen based on previous reports. Neurobehavioral assessment was performed blindly with respect to experimental group and drug administration.
# In the SGP test, mice were scored for spontaneous grooming behaviors. […] To measure SGP, each mouse was placed individually in a standard clear plastic cage (28 cm wide × 17 cm long × 12 cm high) for a total of 20 min. Mice were allowed to freely explore the cage for the entire test, the first 10 min served as a habituation period. After 10 min habituation, each mouse was scored with a stopwatch for 10 min for cumulative time spent grooming all body regions. Grooming behavior included head washing, body grooming, genital/tail grooming and paw and leg licking. The observer sat approximately 1 m from the test cage during the second 10 min of testing.
# BTBR and B6 mice [3] = assay: Marble burying task (MBT); type: in vivo; settings: BTBR mice
# Description: as §1
# The MBT is used for testing repetitive and compulsive behaviors as it accurately reflects repetitive digging behavior [95, 96]. The test was performed as described previously, with slight modifications. Briefly, cages (26 cm × 48 cm × 20 cm) were filled with fresh, unscented mouse bedding material to a depth of 5 cm, on top of which 20 marbles were placed in 4 rows of 5 marbles each (15 mm diameter). Before placing the marbles, the bedding surface was leveled by placing another cage of the same size onto the surface of the bedding and then each mouse was individually added for 10 min habituation. After habituation, the mouse was removed, and the marbles were carefully overlaid. The same mouse was then returned to its designated test cage and allowed to explore for 30 min. The total number of marbles buried (>50% marble covered by the bedding material) was determined at the end of the session.
# BTBR and B6 mice [4] = assay: Spontaneous alternation behavior (SAB), Y maze; type: in vivo; settings: BTBR mice; RAM 10 mg/kg i.p. co-administered with ST-2223 5 mg/kg
# Description: as §1
# The SAB test is based on the exploratory strategy of rodents to explore a new environment. In examining repetitive behaviors, the Y maze test took advantage of the rodents’ natural tendency to spontaneously alternate or choose a different arm of the maze instead of the one they visited on their previous entry (i.e., least recently visited arm). A decrease in the percentage alternation can also be attributed to same arm repeated visits. Spontaneous alternation behavior was measured on a Y maze apparatus, as previously described, with slight modifications. The Y maze composed of three arms (30 cm × 6 cm × 15 cm), where the arms were labeled with letters: A, B, or C. The test mouse was placed in the center of the maze and was allowed to freely explore the maze for 8 min. The number of entries into each arm and the total number of entries were recorded by the observer. A spontaneous alternation was defined as successive entry into three arms on an overlapping triplet set. Percentage spontaneous alternation was calculated as the number of spontaneous alternations (actual alternations) over the total number of entries (possible alternations). Two arm entries were subtracted from the denominator because an alternation required at least 3 entries. The apparatus was cleaned with 70% alcohol solution after each mouse was tested. (1) Percentage spontaneous alternations=Total alternations/(Total arm entries − 2) ×100
# BTBR and B6 mice [5] = assay: Open field test (OFT): locomotor activity and anxiety levels; type: in vivo; settings: BTBR mice
# Description: as §1
# The open field test (OFT) systematically evaluates exploration behaviors executed in a novel open field (considered as a novel environment), as an independent control for the effects of the drugs on physical activity that could confound the interpretation of the results from the self-grooming, anxiety and spontaneous alternation. Mice were allowed to freely explore an open-field arena (45 × 45 × 30 cm), to assess general locomotor activity, and anxiety-related behaviors. The center arena was defined as the central 23 × 23 cm area. Mice were given 5 min to habituate in the center area of the arena before the recording started for the actual behavioral assessments. Recording lasted for 10 min using charge-coupled device (CCD) camera-assisted motion tracking apparatus and software (EthoVision 3.1, Noldus Information Technology, The Netherlands), and the total distance moved in the whole arena, time spent in the center and periphery were recorded. Test chambers were cleaned with 70% ethanol after each trial and were allowed to dry until ethanol evaporation and odor dissipation had occurred. When interpreting the results observed in this assessment, less time spent in the center was considered as an indicator for high levels of anxiety-like behaviors and total distance travelled signified the overall locomotor activity of tested animals.
# mice sensitized with PCP = settings: acute low dose of PCP in mice sensitized by repeated high-dose PCP; cited from earlier work
# [6] = test system: oxidative stress markers (e.g., MDA and GSH); parameters: method as in PMID 27833522, PMID 27089413, PMID 22331799; settings: amphetamine- or dizocilpine-augmented oxidative stress, mouse model of schizophrenia; cited from earlier work
# [7] = RAM 10 mg/kg i.p. co-administered with ST-2223 5 mg/kg
smiles,measurement,setting,value
CCC(C)(C)c1ccc(OCCCN2CCCCC2)cc1 [DL77],percentage of marbles buried,"[1]; adult male Tuck-Ordinary mice with VPA-induced ASD features, subchronic 5, 10, 15 mg/kg, i.p.",significant and dose-dependent
"C[C@@H](N)Cc1c[nH]cn1 [RAM, (R)-α-methylhistamine]",effect of co-administration on the ST-2223 (5 mg)-induced decrease in time spent self-grooming,BTBR and B6 mice [2],nullified
same,"marble burying behavior vs saline-treated BTBR mice, given alone",BTBR and B6 mice [3]; RAM 10 mg/kg i.p. alone,did not alter
same,effect of co-administration on the ST-2223 (5 mg)-stimulated decrease in percentage of buried marbles,BTBR and B6 mice [3]; [7],reversed
same,effect of co-administration on the ST-2223 (5 mg)-induced enhancement in alternation,BTBR and B6 mice [4],entirely reversed
same,"time spent in the center (OFT) vs saline-treated BTBR mice, given alone",BTBR and B6 mice [5]; RAM 10 mg/kg i.p. alone,did not induce any alternation
same,effect of co-administration on the ST-2223 (5 mg)-induced increase in time spent in the center (OFT),BTBR and B6 mice [5]; [7],not reversed
CN1CCCC1CCNS(=O)(=O)c1ccc2c(c1)CN(CC1CCCCC1)CC2 (centres unmarked) [SAR110894],deficit in working memory in the Y maze test,mice sensitized with PCP,reversed
O=C(c1ccc(OCCCc2cnc[nH]2)cc1)C1CC1 [ciproxifan],repetitive behavior in the MBT,[1]; mice with VPA-induced ASD,reduced repetitive behavior
same,"oxidative stress markers (e.g., MDA and GSH)",[6],mitigated
NC(=NCc1ccc(Cl)cc1)SCCCc1cnc[nH]1 [clobenpropit],"oxidative stress markers (e.g., MDA and GSH)",[6],mitigated
